Measurements published in PubChem BioAssay (NCI).
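Cells were grown in 96-well plates and exposed to each compound for 48 hours at five concentrations; endpoints were interpolated linearly between bracketing concentrations, or set to the highest concentration if not reached. GI50 marks 50% less growth. TGI: total growth inhibition.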

Experiments:
Experiment in all cases: NCI anticancer screen, dose series, 48 h
[1] = test system: OVCAR-8 ovarian
[2] = test system: UACC-257 melanoma
[3] = test system: U251 CNS
[4] = test system: ACHN renal
[5] = test system: HCC-2998 colon
[6] = test system: NCI-H226 lung
[7] = test system: MOLT-4 leukemia
[8] = test system: NCI/ADR-RES ovarian
[9] = test system: DU-145 prostate
[10] = test system: MDA-MB-435

COc1nc2c(nc(N)n2C2OC(CO)C(O)C(O)C2O)c(=O)n1C (stereo not given)
TGI [1]: > 100 µM
TGI [2]: > 100 µM
TGI [3]: > 100 µM
TGI [4]: > 100 µM
TGI [5]: > 100 µM
TGI [6]: > 100 µM

CC(=O)OCCOCNC(=S)N/N=C(\C)c1ccco1
TGI [1]: > 100 µM
TGI [2]: > 100 µM
TGI [3]: > 100 µM
TGI [4]: > 100 µM
TGI [5]: > 100 µM
TGI [6]: > 100 µM

O=S1(=O)CSc2ccc3ccccc3c2-c2c1ccc1ccccc21
TGI [1]: > 100 µM
TGI [2]: > 100 µM
TGI [3]: > 100 µM
TGI [4]: > 100 µM
TGI [5]: > 100 µM
TGI [7]: > 100 µM

CC(=O)O[C@H]1CC[C@@]2(C)C(=CC[C@@H]3C2CC[C@]2(C)Nc4oncc4CC32)C1 (stereo not given in full)
TGI [1]: > 100 µM
TGI [2]: > 100 µM
TGI [3]: > 100 µM
TGI [4]: 72.4 µM
TGI [5]: > 100 µM
TGI [6]: 49.5 µM
TGI [7]: 28.9 µM

COC(=O)/C(C#N)=C1\N=NNN1CCCc1ccccc1
TGI [1]: > 100 µM
TGI [2]: > 100 µM
TGI [3]: > 100 µM
TGI [4]: > 100 µM
TGI [5]: > 100 µM
TGI [6]: > 100 µM
TGI [7]: > 100 µM

CCN(CCCl)CCNc1c2ccccc2nc2ccc(OC)cc12
TGI [1]: 2.26 µM
TGI [2]: 3.73 µM
TGI [3]: 4.78 µM
TGI [4]: 1.66 µM
TGI [5]: 2.15 µM
TGI [6]: 2.42 µM
TGI [8]: 12.8 µM
TGI [7]: 0.341 µM

CCN1C(=O)N(c2c(F)c(OC)cc(OC)c2F)Cc2cnc3[nH]c(CN4CCOCC4)cc3c21
GI50 [1]: 3.98 µM
TGI [1]: > 100 µM
GI50 [2]: 4.69 µM
TGI [2]: > 100 µM
GI50 [3]: 2.75 µM
TGI [3]: > 100 µM
GI50 [4]: 1.02 µM
TGI [4]: 14.1 µM
GI50 [9]: 1.99 µM
TGI [9]: > 100 µM
GI50 [6]: 0.8 µM
TGI [6]: > 100 µM
GI50 [8]: 4.48 µM
TGI [8]: > 100 µM
GI50 [10]: 4.65 µM
TGI [10]: > 100 µM
GI50 [7]: 2.56 µM
TGI [7]: 59.9 µM

Cc1cc(Cl)ccc1N1C(=O)C(=O)C(c2nc3ccccc3s2)C(=O)C1=O
TGI [1]: > 100 µM
TGI [2]: > 100 µM
TGI [3]: > 100 µM
TGI [4]: > 100 µM
TGI [6]: > 100 µM
TGI [7]: > 100 µM

CCOc1ccc(NC(=O)C2=C(C)NC(C)=C(C(=O)Nc3ccc(OCC)cc3)C2c2ccc([N+](=O)[O-])cc2)cc1
TGI [1]: > 100 µM
TGI [2]: > 100 µM
TGI [3]: > 100 µM
TGI [4]: 87.4 µM
TGI [5]: 52.7 µM
TGI [6]: > 100 µM
TGI [7]: 66.9 µM

C/C=C/C1(NS(=O)(=O)c2ccc(C)cc2)CCC(C(C)(C)C)CC1 (stereo not given)
TGI [1]: > 100 µM
TGI [2]: 56 µM
TGI [3]: 29.5 µM
TGI [4]: > 100 µM
TGI [5]: 36.1 µM
TGI [6]: 44.4 µM
TGI [7]: 39.9 µM

Cc1cccc(C)c1NC(=O)C(=O)C1C(=O)N(c2ccccc2)N=C1N (stereo not given)
TGI [1]: > 100 µM
TGI [2]: > 100 µM
TGI [3]: > 100 µM
TGI [4]: > 100 µM
TGI [5]: > 100 µM
TGI [6]: > 100 µM
TGI [7]: > 100 µM

CCC(=O)O[C@@H]1C2C(OC(C)=O)C34COC(C)([C@@H]3C3C(C[C@]3(C)OC(C)=O)[C@@H](OC(=O)c3ccccc3)C4=O)[C@H](OC(C)=O)[C@@]2(OC(C)=O)C[C@@H]1C (stereo not given in full)
TGI [1]: > 100 µM
TGI [2]: > 100 µM
TGI [3]: 46 µM
TGI [4]: > 100 µM
TGI [5]: > 100 µM
TGI [6]: 41.4 µM
TGI [7]: > 100 µM

CC1=C(C(=O)Nc2ccc(F)c(Cl)c2)C(c2cccc(Cl)c2)NC(=O)N1 (stereo not given)
GI50 [1]: 17.5 µM
TGI [1]: 39.7 µM
GI50 [2]: 21.4 µM
TGI [2]: 56.2 µM
GI50 [3]: 16.5 µM
TGI [3]: 32.5 µM
GI50 [4]: 18.3 µM
TGI [4]: 46.4 µM
GI50 [9]: 20.6 µM
TGI [9]: 55.8 µM
GI50 [5]: 18.3 µM
TGI [5]: 32.5 µM
GI50 [6]: 18.1 µM
TGI [6]: 48.2 µM
GI50 [8]: 27.5 µM
TGI [8]: 67.6 µM
GI50 [10]: 17.9 µM
TGI [10]: 38 µM

C[Si](C)(C)/C(Br)=C\CCN1C(=O)CCC1O (stereo not given)
TGI [1]: > 100 µM
TGI [2]: > 100 µM
TGI [3]: > 100 µM
TGI [4]: > 100 µM
TGI [6]: > 100 µM
TGI [7]: > 100 µM

CC(O)CN(CCN(CC(C)O)CC(C)O)CC(C)O.O=[N+]([O-])O.[Cu+2] (stereo not given)
GI50 [1]: > 100 µM
TGI [1]: > 100 µM
GI50 [2]: > 100 µM
TGI [2]: > 100 µM
GI50 [3]: > 100 µM
TGI [3]: > 100 µM
GI50 [4]: > 100 µM
TGI [4]: > 100 µM
GI50 [9]: > 100 µM
TGI [9]: > 100 µM
GI50 [6]: > 100 µM
TGI [6]: > 100 µM
GI50 [8]: > 100 µM
TGI [8]: > 100 µM
GI50 [10]: > 100 µM
TGI [10]: > 100 µM
GI50 [7]: > 100 µM
TGI [7]: > 100 µM

CC(C)(C)c1ccccc1NS(=O)(=O)c1ccccc1
TGI [1]: > 100 µM
TGI [2]: > 100 µM
TGI [3]: > 100 µM
TGI [4]: > 100 µM
TGI [5]: > 100 µM
TGI [6]: 88.2 µM
TGI [7]: > 100 µM

COc1ccc(C(=O)Nc2cccc(C3CC(=O)c4c(cc(OC)c(OC)c4OC)O3)c2)cc1 (stereo not given)
GI50 [1]: 2.79 µM
TGI [1]: 20.5 µM
GI50 [2]: 11.6 µM
TGI [2]: 56 µM
GI50 [4]: 2.57 µM
TGI [4]: > 100 µM
GI50 [9]: 2.88 µM
TGI [9]: > 100 µM
GI50 [5]: 3.46 µM
TGI [5]: 87.1 µM
GI50 [6]: 2.6 µM
TGI [6]: 43.1 µM
GI50 [8]: 0.629 µM
TGI [8]: 17.6 µM
GI50 [10]: 0.276 µM
TGI [10]: 1.4 µM
GI50 [7]: 1.02 µM
TGI [7]: 5.18 µM

C[C@H](NC(=O)OC1C2C=CC(O)C1CC2)c1ccccc1 (stereo not given in full)
TGI [1]: > 100 µM
TGI [2]: > 100 µM
TGI [3]: > 100 µM
TGI [4]: > 100 µM
TGI [5]: > 100 µM
TGI [6]: > 100 µM
TGI [7]: > 100 µM

O=C(O)/C(Cl)=C(/Cl)C(=O)Nc1cccc(Cl)c1
TGI [1]: 38.9 µM
TGI [2]: 47 µM
TGI [3]: 59.9 µM
TGI [4]: 36.8 µM
TGI [9]: > 100 µM
TGI [5]: 37.1 µM
TGI [6]: 67.2 µM
TGI [10]: 46.5 µM
TGI [7]: 8.45 µM

N#CC(C#N)=C1NC(=O)C(c2ccccc2)C(=O)N1 (stereo not given)
TGI [1]: > 100 µM
TGI [2]: > 100 µM
TGI [3]: > 100 µM
TGI [5]: > 100 µM
TGI [6]: > 100 µM
TGI [7]: > 100 µM

CCCCCCCCCCCCC(Br)C(=O)SCCNC(=O)CCNC(=O)[C@@H](O)C(C)(C)COP(=O)(O)OP(=O)(O)OCC1OC(n2cnc3c(N)ncnc32)C(O)C1OP(=O)(O)O (stereo not given in full)
TGI [1]: > 56.5 µM
TGI [2]: 40.4 µM
TGI [3]: > 56.5 µM
TGI [4]: > 56.5 µM
TGI [5]: > 56.5 µM
TGI [6]: > 56.5 µM

Cc1cc(S(N)(=O)=O)c(S/C(=N\NS(=O)(=O)c2ccc(Cl)cc2)c2ccc(Cl)cc2)cc1Cl
GI50 [1]: > 100 µM
TGI [1]: > 100 µM
GI50 [2]: > 100 µM
TGI [2]: > 100 µM
GI50 [3]: 62.8 µM
TGI [3]: > 100 µM
GI50 [4]: 38.6 µM
TGI [4]: > 100 µM
GI50 [9]: > 100 µM
TGI [9]: > 100 µM
GI50 [6]: 92.4 µM
TGI [6]: > 100 µM
GI50 [8]: > 100 µM
TGI [8]: > 100 µM
GI50 [10]: > 100 µM
TGI [10]: > 100 µM
GI50 [7]: 8.12 µM
TGI [7]: > 100 µM
